# According to ChEMBL document CHEMBL5579854, “Targeting Relevant HDACs to Support the Survival of Cone Photoreceptors in Inherited Retinal Diseases: Identification of a Potent Pharmacological Tool with In Vitro and In Vivo Efficacy” (J Med Chem, 2024):
# Activity calls are given as the source filed them. The calls are words filed in the database; no cut-off is given here.
# Legend:
# [1] = Lipophilicity, logP of compound; format: physicochemical; settings: octanol/water
# Cytochrome P450 1A = target: T1, Cytochrome P450 1A (Homo sapiens, UniProt P04798+P05177); assay: Inhibition of CYP1A in human liver microsomes using ECOD at 1 to 50 uM measured upto 30 mins by fluorescence based assay; format: ADME, Microsome; settings: 0.5 h, dose 1-50 µM
# T1 sequence (P04798 whole entry): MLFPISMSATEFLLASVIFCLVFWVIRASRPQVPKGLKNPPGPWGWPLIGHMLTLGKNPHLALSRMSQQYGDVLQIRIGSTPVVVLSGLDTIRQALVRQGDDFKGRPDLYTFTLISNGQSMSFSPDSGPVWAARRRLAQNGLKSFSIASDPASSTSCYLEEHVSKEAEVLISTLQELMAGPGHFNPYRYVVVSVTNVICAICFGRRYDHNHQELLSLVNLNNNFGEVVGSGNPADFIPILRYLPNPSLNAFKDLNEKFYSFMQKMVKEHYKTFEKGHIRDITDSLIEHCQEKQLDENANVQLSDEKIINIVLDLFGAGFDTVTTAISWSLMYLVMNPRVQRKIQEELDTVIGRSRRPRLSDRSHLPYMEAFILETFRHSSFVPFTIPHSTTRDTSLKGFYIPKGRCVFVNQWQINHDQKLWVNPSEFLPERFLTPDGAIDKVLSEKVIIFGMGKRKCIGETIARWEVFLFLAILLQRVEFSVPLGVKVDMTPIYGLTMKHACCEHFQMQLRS
# T1 sequence (P05177 whole entry): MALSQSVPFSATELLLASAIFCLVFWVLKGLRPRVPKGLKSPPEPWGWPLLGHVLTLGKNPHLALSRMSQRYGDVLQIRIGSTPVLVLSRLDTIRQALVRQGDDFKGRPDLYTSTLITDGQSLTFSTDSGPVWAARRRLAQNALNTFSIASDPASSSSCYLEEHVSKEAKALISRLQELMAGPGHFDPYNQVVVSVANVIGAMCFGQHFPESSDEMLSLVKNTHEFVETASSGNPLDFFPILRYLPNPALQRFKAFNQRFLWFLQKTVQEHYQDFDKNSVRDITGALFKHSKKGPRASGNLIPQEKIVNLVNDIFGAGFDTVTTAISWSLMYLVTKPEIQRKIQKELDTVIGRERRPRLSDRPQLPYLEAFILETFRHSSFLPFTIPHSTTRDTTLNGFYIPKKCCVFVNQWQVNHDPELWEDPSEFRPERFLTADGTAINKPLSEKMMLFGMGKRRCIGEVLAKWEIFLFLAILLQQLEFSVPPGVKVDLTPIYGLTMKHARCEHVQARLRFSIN
# ARPE-19 = assay: Cytotoxicity against human ARPE-19 cells assessed as cell viability at 1 uM incubated for 24 hrs by MTT assay; format: toxicity, cell-based; settings: arpe-19, 24 h
# [2] = Toxicity in zebrafish larval dye model harboring atp6v0e1/ucd6 assessed as visual impairment at 20 to 100 uM treated for 2 days; design: species or system Danio rerio; settings: in vivo, 48 h, dose 20-100 µM, time 2 day
# [3] = Induction of cone cell survival rate in eyes of C57BL/6J mouse model harboring rd10 mutant at 5 uM, IVT administered bilaterally measured after 5 days by fluorescence microscopy relative to control; format: functional, Eye; settings: time 5 day
# Mus musculus [4] = assay: Rescue of b-wave amplitude in photopic stimulation in eyes of C57BL/6J mouse model harboring rd10 mutant at 5 to 30 uM, IVT administered bilaterally measured after 5 days by ERG analysis; format: functional, tissue-based; settings: Eye, dose 5-30 µM, time 5.0 day
# Mus musculus [5] = assay: Inhibition of discontinuities in tight junction pattern in eyes of C57BL/6J mouse model harboring rd10 mutant at 30 uM, IVT administered bilaterally measured after 5 days by ZO-1 staining based analysis; format: functional, tissue-based; settings: Eye, time 5.0 day
smiles,measurement,setting,value
O=C(NO)c1ccc(CNC(=O)N2CCc3c(c4ccccc4n3Cc3ccccc3)C2)cc1,logP,[1],2.94
same,inhibition (INH),Cytochrome P450 1A,Not Active
same,Activity,ARPE-19,Non-Toxic
same,Activity,[2],Non-Toxic
same,Activity,[3],4%
same,Activity,Mus musculus [4],Active
same,inhibition,Mus musculus [5],Active
